From ChEMBL document CHEMBL4425097, “Adrenomedullin 2.0: Adjusting Key Levers for Metabolic Stability” (J Med Chem, 2016)
Calls of active or inactive are those of the source. The rule behind the calls is not given here. Where a SMILES comes first, the peptide text is derived from it. Bridges are numbered along the chain shown (N, C = ends).

Target: Adrenomedullin receptor AM1; CALCRL/RAMP2 (Homo sapiens) (UniProt O60895+Q16602)
Experiment: Agonist activity at eYFP-tagged CLR/eCFP-tagged RAMP2-derived AM1 receptor (unknown origin) expressed in HEK293 cells assessed as cAMP accumulation after 3 hrs by ONE-Glo substrate-based luminescence assay
Type: functional, cell-based

Activity	SMILES
inactive	CC[C@H](C)[C@H](NC(=O)[C@H](CCC(N)=O)NC(=O)[C@H](Cc1cnc[nH]1)NC(=O)[C@H](C)NC(=O)[C@H](CC(C)C)NC(=O)[C@H](CCCCN)NC(=O)[C@H](CCC(N)=O)NC(=O)[C@@H](NC(=O)[C@@H](N)[C@@H](C)O)C(C)C)C(=O)N[C@@H](Cc1ccc(O)cc1)C(=O)N[C@@H](CCC(N)=O)C(=O)N[C@@H](Cc1ccccc1)C(=O)N[C@H](C(=O)N[C@@H](CC(=O)O)C(=O)N[C@@H](CCCCN)C(=O)N[C@@H](CC(=O)O)C(=O)N[C@@H](CCCCN)C(=O)N[C@@H](CC(=O)O)C(=O)N[C@@H](CC(N)=O)C(=O)N[C@H](C(=O)N[C@@H](C)C(=O)N1CCC[C@H]1C(=O)N[C@@H](CCCNC(=N)N)C(=O)N[C@@H](CO)C(=O)N[C@@H](CCCCN)C(=O)N[C@H](C(=O)N[C@@H](CO)C(=O)N1CCC[C@H]1C(=O)N[C@@H](CCC(N)=O)C(=O)NCC(=O)N[C@@H](Cc1ccc(O)cc1)C(N)=O)[C@@H](C)CC)C(C)C)[C@@H](C)O
inactive	CC[C@H](C)[C@H](NC(=O)[C@H](CCC(N)=O)NC(=O)[C@H](Cc1cnc[nH]1)NC(=O)[C@H](C)NC(=O)[C@H](CC(C)C)NC(=O)[C@H](CCCCN)NC(=O)[C@H](CCC(N)=O)NC(=O)[C@@H](NC(=O)[C@@H](NC(=O)[C@@H]1CSSC[C@H](NC(=O)CNC(=O)CN)C(=O)N[C@@H](CCCNC(=N)N)C(=O)N[C@@H](Cc2ccccc2)C(=O)NCC(=O)N[C@@H]([C@@H](C)O)C(=O)N1)[C@@H](C)O)C(C)C)C(=O)N[C@@H](Cc1ccc(O)cc1)C(=O)N[C@@H](CCC(N)=O)C(=O)N[C@@H](Cc1ccccc1)C(=O)N[C@H](C(=O)N[C@@H](CC(=O)O)C(=O)N[C@@H](CCCCN)C(=O)N[C@@H](CC(=O)O)C(=O)N[C@@H](CCCCN)C(=O)N[C@@H](CC(=O)O)C(=O)N[C@@H](CC(N)=O)C(=O)N[C@H](C(=O)N[C@@H](C)C(=O)N1CCC[C@H]1C(=O)N[C@@H](CCCNC(=N)N)C(=O)N[C@@H](CO)C(=O)O)C(C)C)[C@@H](C)O (H-GGCRFGTCTVQKLAHQIYQFTDKDKDNVAPRS-OH; disulfide 3-8)
inactive	CC[C@H](C)[C@H](NC(=O)[C@H](CCC(N)=O)NC(=O)[C@H](Cc1cnc[nH]1)NC(=O)[C@H](C)NC(=O)[C@H](CC(C)C)NC(=O)[C@H](CCCCN)NC(=O)[C@H](CCC(N)=O)NC(=O)[C@@H](NC(=O)[C@@H](NC(=O)[C@@H]1CSSC[C@H](NC(=O)CNC(=O)CN)C(=O)N[C@@H](CCCNC(=N)N)C(=O)N[C@@H](Cc2ccccc2)C(=O)NCC(=O)N[C@@H]([C@@H](C)O)C(=O)N1)[C@@H](C)O)C(C)C)C(=O)N[C@@H](Cc1ccc(O)cc1)C(=O)N[C@@H](CCC(N)=O)C(=O)N[C@@H](Cc1ccccc1)C(=O)N[C@H](C(=O)N[C@@H](CC(=O)O)C(=O)N[C@@H](CCCCN)C(=O)N[C@@H](CC(=O)O)C(=O)N[C@@H](CCCCN)C(=O)N[C@@H](CC(=O)O)C(=O)N[C@@H](CC(N)=O)C(=O)N[C@H](C(=O)N[C@@H](C)C(=O)N1CCC[C@H]1C(=O)N[C@@H](CCCNC(=N)N)C(=O)O)C(C)C)[C@@H](C)O (H-GGCRFGTCTVQKLAHQIYQFTDKDKDNVAPR-OH; disulfide 3-8)
inactive	C[C@@H](O)[C@@H]1NC(=O)CNC(=O)[C@H](Cc2ccccc2)NC(=O)[C@H](CCCNC(=N)N)NC(=O)[C@@H](NC(=O)CNC(=O)CN)CSSC[C@@H](C(=O)O)NC1=O (H-GGCRFGTC-OH; disulfide 3-8)
